According to patent publication US8486945B2, “Heterocyclic inhibitors of an Hh-signal cascade, medicinal compositions based thereon and methods for treating diseases caused by the aberrant activity of an Hh-signal system” (priority 2007, dated 2013):

Assays:
Hh-signalling cascade = assay: Inhibition of SHh-induced alkaline phosphatase in C3H10T1/2 cells (Hh-signalling cascade inhibition); format: cell-based; conditions: Mus musculus, C3H 10T1/2, half maximal inhibition of SHh (0.3 μg/ml) stimulation of cell alkaline phosphatase
Method in brief: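 C3H10T1/2 cells preincubated 30 min with compound (screen at 10 μM; IC50 from triplicate dilution series), then stimulated with 0.3 μg/ml recombinant SHh for 3 days at 37 °C. Alkaline phosphatase measured by CSPD luminescence in 0.2% Triton-X100 lysates; IC50 = half-maximal inhibition of SHh-induced activity.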

melting point [°C] | IC50 (Hh-signalling cascade) [µM] | Structure (SMILES)
257 to 259 | < 0.5 | Cc1nn(CC(=O)N2CCN(c3cccc(Cl)c3)CC2)c(=O)c2nn(-c3ccccc3)c(C)c12 [I-1002, 2-phenyl-3,4-dimethyl-6-{2-[4-(3-chlorophenyl)piperazin-1-yl]-2-oxoethyl}-2,6-dihydro-7H-pyrazolo[3,4-d]pyridazin-7-one]
252 to 254 | < 0.5 | Cc1nn(CC(=O)N2CCN(c3ccccc3)CC2)c(=O)c2nn(-c3ccccc3)c(C)c12 [I-1003, 2-Phenyl-3,4-dimethyl-6-{2-[4-phenylpiperazin-1-yl]-2-oxoethyl}-2,6-dihydro-7H-pyrazolo[3,4-c]pyridazin-7-one]
249 to 251 | < 0.5 | Cc1cccc(N2CCN(C(=O)Cn3nc(C)c4c(C)n(-c5ccccc5)nc4c3=O)CC2)c1C [I-1004, 2-Phenyl-3,4-dimethyl-6-{2-[4-(2,3-dimethylphenyl)piperazin-1-yl]-2-oxoethyl}-2,6-dihydro-7H-pyrazolo[3,4-d]pyridazin-7-one]
232 to 234 | < 0.5 | Cc1ccc(C)c(N2CCN(C(=O)Cn3nc(C)c4c(C)n(-c5ccccc5)nc4c3=O)CC2)c1 [I-1005, 2-Phenyl-3,4-dimethyl-6-{2-[4-(2,5-dimethylphenyl)piperazin-1-yl]-2-oxoethyl}-2,6-dihydro-7H-pyrazolo[3,4-d]pyridazin-7-one]
257 to 259 | < 0.5 | Cc1nn(CC(=O)N2CCN(c3ccc(F)cc3)CC2)c(=O)c2nn(-c3ccccc3)c(C)c12 [I-1006, 2-Phenyl-3,4-dimethyl-6-{2-[4-(4-fluorophenyl)piperazin-1-yl]-2-oxoethyl}-2,6-dihydro-7H-pyrazolo[3,4-d]pyridazin-7-one]
240 to 242 | < 0.5 | Cc1nn(CC(=O)N2CCN(c3ccccc3F)CC2)c(=O)c2nn(-c3ccccc3)c(C)c12 [I-1007, 2-Phenyl-3,4-dimethyl-6-{2-[4-(2-fluorophenyl)piperazin-1-yl]-2-oxoethyl}-2,6-dihydro-7H-pyrazolo[3,4-d]pyridazin-7-one]
193 to 195 | < 0.5 | Cc1nn(C(C)C(=O)N2CCN(c3ccccc3)CC2)c(=O)c2nn(-c3ccccc3)c(C)c12 (stereo not drawn) [I-1008, 2 Phenyl-3,4-dimethyl-6-[1-methyl-2-(4-phenylpiperazin-1-yl)-2-oxoethyl]-2,6-dihydro-7H-pyrazolo[3,4-d]pyridazin-7-one]
194 to 196 | < 0.5 | Cc1nn(C(C)C(=O)N2CCN(c3cccc(Cl)c3)CC2)c(=O)c2nn(-c3ccccc3)c(C)c12 (stereo not drawn) [I-1009, 2-Phenyl-3,4-dimethyl-6-{1-methyl-2-[4-(3-chlorophenyl)piperazin-1-yl]-2-oxoethyl}-2,6-dihydro-7H-pyrazolo[3,4-d]pyridazin-7-one]
 | < 0.5 | CN1CCN(C(=O)C2CCN(C(=O)c3cc4sccc4n3Cc3ccccc3F)CC2)CC1 [V-1051, [4-(2-Fluorobenzyl)-4H-thieno[3,2-b]pyrrol-5-yl]-[4-(4-methylpiperazine-1-carbonyl)piperidin-1-yl]methanone]
 | < 0.5 | CN1CCN(C(=O)C2CCN(C(=O)c3cc4sccc4n3Cc3ccccc3Cl)CC2)CC1 [V-1052, [4-(2-Chlorobenzyl)-4H-thieno[3,2-b]pyrrol-5-yl]-[4-(4-methylpiperazine-1-carbonyl)piperidin-1-yl]methanone]
 | < 0.5 | COc1ccc(Cn2c(C(=O)N3CCC(C(=O)N4CCN(C)CC4)CC3)cc3sccc32)cc1 [V-1053, [4-(4-Methoxybenzyl)-4H-thieno[3,2-b]pyrrol-5-yl]-[4-(4-methylpiperazine-1-carbonyl)piperidin-1-yl]methanone]
 | < 0.5 | CN1CCN(C(=O)C2CCN(C(=O)c3cc4sccc4n3Cc3ccc(N(C)C)cc3)CC2)CC1 [V-1054, [4-(4-Dimethylaminobenzyl)-4H-thieno[3,2-b]pyrrol-5-yl]-[4-(4-methylpiperazine-1-carbonyl)piperidin-1-yl]methanone]
 | < 0.5 | CN1CCN(C(=O)C2CCN(C(=O)c3cc4sccc4n3Cc3ccc4c(c3)OCO4)CC2)CC1 [V-1055, [4-(3,4-Methylendioxybenzyl)-4H-thieno[3,2-b]pyrrol-5-yl]-[4-(4-methylpiperazine-1-carbonyl)piperidin-1-yl]methanone]
 | < 5 | CCOc1ccc(NC(=O)c2ccnc(N3CCC(C(=O)Nc4ccc(F)cc4)CC3)c2)cc1 [VI-1007, 3,4,5,6-Tetrahydro-2H-[1,2′]bipyridinyl-4,4′-carboxylic acid 4′-[(4-ethoxyphenyl)amide] 4-[(4-fluorophenyl)amide]]
 | < 0.5 | CS(=O)(=O)N1CCCc2cc(C(=O)Nc3ccc4c(c3)OCO4)ccc21 [VII-1005, 1-Methylsulfonyl-1,2,3,4-tetrahydroquinoline-6-carboxylic acid (benzo[1,3]dioxol-5-yl)amide]
 | < 5 | O=C(Nc1ccc(F)cc1)c1ccc2c(c1)CCCN2S(=O)(=O)c1ccccc1 [VII-1012, 1-Phenylsulfonyl-1,2,3,4-tetrahydroquinoline-6-carboxylic acid (4-fluorophenyl)amide]
 | < 5 | COc1ccc(NC(=O)c2ccc3c(c2)CCCN3S(=O)(=O)c2ccc(C)cc2)cc1 [VII-1014, 1-Tosyl-1,2,3,4-tetrahydroquinoline-6-carboxylic acid (4-methoxyphenyl)amide]
 | < 0.5 | Cc1ccc(NC(=O)c2ccc3c(c2)CCCN3S(=O)(=O)c2ccc(Cl)cc2)cc1C [VII-1017, 1-(4-Chlorophenylsulfonyl)-1,2,3,4-tetrahydroquinoline-6-carboxylic acid (3,4-dimethylphenyl)amide]
 | < 5 | Cc1ccc(NC(=O)c2ccc3c(c2)CCCN3S(=O)(=O)c2ccc(Br)cc2)cc1 [VII-1020, 1-(4-Bromophenylsulfonyl)-1,2,3,4-tetrahydroquinoline-6-carboxylic acid p-tolylamide]
 | < 5 | CCS(=O)(=O)N1CCCc2cc(C(=O)Nc3ccccc3F)ccc21 [VII-1025, 1-Ethylsulfonyl-1,2,3,4-tetrahydroquinoline-6-carboxylic acid (2-fluorophenyl)amide]
 | < 5 | CN1CCc2c(sc(NC(=O)C3CC3)c2-c2nc3ccccc3s2)C1 [VIII-1003, Cyclopropanecarboxylic acid (3-benzo[d]thiazol-2-yl-6-methyl-4,5,6,7-tetrahydrothieno[2,3-c]pyridin-2-yl)amide]
 | < 5 | CC(=O)N1CCc2c(sc(NC(=O)C3CCCCC3)c2-c2nc3ccccc3s2)C1 [VIII-1016, Cyclohexanecarboxylic acid (6-acetyl-3-benzo[d]thiazol-2-yl-4,5,6,7-tetrahydrothieno[2,3-c]pyridin-2-yl)amide]
 | < 50 | CC(=O)N1CCc2c(sc(NC(=O)Cc3ccccc3)c2-c2nc3ccccc3s2)C1 [VIII-1017, N-(6-Acetyl-3-benzo[d]thiazol-2-yl-4,5,6,7-tetrahydrothieno[2,3-c]pyridin-2-yl)-2-phenylacetamide]
 | < 50 | COC(=O)c1ccc(C(=O)Nc2sc3c(c2-c2nc4ccccc4s2)CCN(C(C)C)C3)cc1 [VIII-1025]
 | < 50 | CN1CCc2c(sc(NC(=O)c3cccc(C(F)(F)F)c3)c2-c2nc3ccccc3s2)C1 [VIII-1026, N-(3-(Benzo[d]thiazol-2-yl)-6-methyl-4,5,6,7-tetrahydrothieno[2,3-c]pyridin-2-yl)-3-trifluoromethylbenzamide]
